Data on 66 molecules can be found in US20180170941A1 (priority 2016, published 2018).

Structures are written as SMILES. pKi: −log10 of the molar value. Bounds are passed on as bounds.

The target in the first test is T1, α5β3γ2 GABAA receptors (Ltk cell membranes) (Homo sapiens, UniProt P18507+P31644).
T1 construct: membranes
T1 sequence (P31644 32-462): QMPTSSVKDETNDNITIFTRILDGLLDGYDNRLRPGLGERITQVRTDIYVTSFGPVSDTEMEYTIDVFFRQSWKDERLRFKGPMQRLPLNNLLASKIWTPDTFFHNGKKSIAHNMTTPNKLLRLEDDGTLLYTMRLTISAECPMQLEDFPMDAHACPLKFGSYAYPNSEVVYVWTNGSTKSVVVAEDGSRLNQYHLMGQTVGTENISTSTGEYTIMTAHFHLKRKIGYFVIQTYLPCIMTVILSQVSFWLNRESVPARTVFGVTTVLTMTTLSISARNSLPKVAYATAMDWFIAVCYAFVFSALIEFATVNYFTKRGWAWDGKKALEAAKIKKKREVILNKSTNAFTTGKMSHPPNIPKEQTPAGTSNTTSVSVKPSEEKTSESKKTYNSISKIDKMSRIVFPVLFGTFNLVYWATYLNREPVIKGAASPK
T1 sequence (P28472 26-473 partner): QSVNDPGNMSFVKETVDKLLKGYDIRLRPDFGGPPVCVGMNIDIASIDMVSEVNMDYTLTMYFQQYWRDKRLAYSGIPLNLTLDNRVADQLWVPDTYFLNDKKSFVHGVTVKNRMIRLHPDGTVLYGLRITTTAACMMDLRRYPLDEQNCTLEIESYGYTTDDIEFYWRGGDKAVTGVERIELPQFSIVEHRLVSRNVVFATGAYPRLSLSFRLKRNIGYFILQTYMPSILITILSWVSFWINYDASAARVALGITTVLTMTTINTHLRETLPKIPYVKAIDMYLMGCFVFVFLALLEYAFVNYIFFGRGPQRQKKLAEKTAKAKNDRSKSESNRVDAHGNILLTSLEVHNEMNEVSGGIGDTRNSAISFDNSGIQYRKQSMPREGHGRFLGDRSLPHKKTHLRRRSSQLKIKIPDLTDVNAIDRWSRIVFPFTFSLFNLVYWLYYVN
T1 sequence (P18507 40-475): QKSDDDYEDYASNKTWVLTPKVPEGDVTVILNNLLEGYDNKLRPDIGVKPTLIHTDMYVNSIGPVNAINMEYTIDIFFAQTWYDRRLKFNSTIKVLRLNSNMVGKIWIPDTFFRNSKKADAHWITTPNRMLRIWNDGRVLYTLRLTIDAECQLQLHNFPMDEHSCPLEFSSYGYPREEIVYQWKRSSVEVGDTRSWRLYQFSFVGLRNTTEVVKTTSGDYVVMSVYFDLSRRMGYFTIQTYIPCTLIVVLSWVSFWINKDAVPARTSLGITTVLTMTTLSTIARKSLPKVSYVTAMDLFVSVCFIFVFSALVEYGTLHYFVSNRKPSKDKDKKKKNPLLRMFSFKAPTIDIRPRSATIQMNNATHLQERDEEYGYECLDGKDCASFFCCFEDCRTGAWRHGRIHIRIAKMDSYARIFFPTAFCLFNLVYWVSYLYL
The experiment in a line: Binding activity of test compounds on GABAAR: inhibition of [3H]Ro15-1788 binding.
Details: not given
How it is done:
Tissue culture and Membrane Preparation: The binding was performed on Ltk cells stably expressing GABAA receptors: α1β1γ2, α2β3γ2, α3β3γ2 and α5β3γ2 (provided by Merck Co., NJ, USA). Cells were seeded in 100 mm culture plates in DMEM/F12 medium containing 10% serum and antibiotics in 5% CO2 and allowed to grow for 1-2 days. GABAAR expression was then induced by dexamethasone as follows: 0.5 μM for 1 day for α5 containing and 2μM for 3 days for α1, α2 and α3 containing GABAARs. After induction, cells were collected by scraping into Dulbecco's Phosphate buffered saline (DPBS, pH 7.4, Invitrogen, Carlsbad, Calif., USA) and centrifuged at 150×g for 10 min. The pellet was washed twice by re-suspension and centrifugation. The cell pellets from at least 5 different preps were combined, suspended in the binding assay buffer (50 mM KH2P4; 1 mM EDTA; 0.2 M KCl, pH 7.4) and membranes prepared by sonication (3-5 times, 30 sec) using Branson Sonifier 150 (G.Heinmann, Germany). Protein content was determined using BCA assay (Bio-Rad Labs, Reinach, Switzerland) with Bovine Serum Albumin (Sigma Aldrich, St. Louis, Mo., USA) as the standard. Aliquots were prepared and stored at −20° C. for further use in binding assays.
Ligand Binding: Saturation binding curves were obtained by incubating membranes with increasing concentrations (0.01-8 nM) of [^3H]Ro15-1788 (Flumazepil, 75-85 Ci/mmol, PerkinElmer, MA, USA), with nonspecific binding measured in the presence of 10 μM diazepam.
All binding assays were performed for 1 h at 4° C. in assay buffer. The total assay volume was 0.5 ml containing 0.2 mg/ml protein for α5 and 0.4 mg/ml for α1, α2, and α3 containing GABAAR membranes. Incubations were terminated by filtration through GF/B filters using a 24-Cell Harvestor (Brandel, Gaithersburg, Md., USA) followed by 3 washes with ice-cold assay buffer. Filters were transferred to scintillation vials, 5 ml scintillation liquid added, vortex-mixed and kept in dark. Next day, radioactivity was obtained using a scintillation counter (Beckman Coulter, Brea, Calif., USA). All assays were performed in triplicate.
Data Analyses: Saturation and inhibition curves were obtained using GraphPad Prism software (GraphPad Software, Inc., CA, USA).
By pKi is commonly meant −log10 of the Ki, conventionally taken in molar units. A low value points to a large Ki. As for `CCC(=O)c1ncn2c1Cn1c(COc3ccccc3)nnc1-c1cc(OC)ccc1-2` [Compound 123], the pKi was less than 6.00. Molecule `COCc1nnc2n1Cc1cncn1-c1ccc(OC)cc1-2` [Compound 131] gave a pKi of less than 6.00. `COc1ccc2c(c1)-c1nnc(COc3ccccc3)n1Cc1c(Cc3ccccc3)ncn1-2` [Compound 142] showed a negative logarithm of the Ki (pKi) of less than 6.00. `Cc1ccc(S(=O)(=O)c2ncn3c2Cc2c(C)nnn2-c2cc(F)ccc2-3)cc1` [Compound 143]: the pKi is less than 6.00.

The same test, now with this note: GABA α5 Binding Ki Values, inhibition of [3H]Ro15-1788 binding; reported as ranges.
In the case of `CCOC(=O)c1ncn2c1Cc1c(C)nnn1-c1cc(OC)ccc1-2` [Compound 1], the pKi is greater than 7.00. On the same count and under the same terms, under `CCOC(=O)c1ncn2c1Cc1c(C)nnn1-c1cc(F)ccc1-2` [Compound 2] stands greater than 7.00; under `CCOC(=O)c1ncn2c1Cc1c(C)nnn1-c1ccccc1-2` [Compound 3], greater than 7.00.

`CCOC(=O)c1ncn2c1Cc1c(Cc3ccccc3)nnn1-c1cc(OC)ccc1-2` [Compound 4] had a pKi greater than 7.00.

Turning to `CCOC(=O)c1ncn2c1Cc1c(Cc3ccccc3)nnn1-c1ccccc1-2` [Compound 5], the negative-log Ki (pKi) was greater than 7.00. As for `CCOC(=O)c1ncn2c1Cc1c(Cc3ccccc3)nnn1-c1cc(F)ccc1-2` [Compound 6], the negative logarithm of the Ki (pKi) was greater than 7.00. `CCOC(=O)c1ncn2c1Cc1c(C)cnn1-c1cc(OC)ccc1-2` [Compound 7]: the pKi was greater than 7.00. The same measure, in the same setting: next, `CCOC(=O)c1ncn2c1Cc1c(Cc3ccccc3)cnn1-c1cc(OC)ccc1-2` [Compound 8]: greater than 7.00; `CCOC(=O)c1ncn2c1Cc1c(COc3ccccc3)nnn1-c1cc(OC)ccc1-2` [Compound 9]: greater than 7.00. In the case of `CCOC(=O)c1ncn2c1Cc1c(COc3ccc(F)cc3)nnn1-c1cc(OC)ccc1-2` [Compound 10], the negative logarithm of the Ki (pKi) is greater than 7.00. As for `CCOC(=O)c1ncn2c1Cc1c(COc3cccc(OC)c3)nnn1-c1cc(OC)ccc1-2` [Compound 11], the negative logarithm of the Ki (pKi) is greater than 7.00. Same read-out and setting: under `CCOC(=O)c1ncn2c1Cc1c(COc3ccc(C)cc3C)nnn1-c1cc(OC)ccc1-2` [Compound 12] stands greater than 7.00; under `CCOC(=O)c1ncn2c1Cc1c(Cc3ccc(C)cc3)nnn1-c1cc(F)ccc1-2` [Compound 44], greater than 7.00; under `CCOC(=O)c1ncn2c1Cc1c(Cc3ccc(Cl)cc3)nnn1-c1cc(F)ccc1-2` [Compound 45], greater than 7.00.

In turn, `CCOC(=O)c1ncn2c1Cc1c(Cc3ccc(F)cc3)nnn1-c1cc(F)ccc1-2` [Compound 46] showed a negative logarithm of the Ki (pKi) greater than 7.00. Same read-out and setting: next, `CCOC(=O)c1ncn2c1Cc1c(Cc3ccc(Cl)cc3)nnn1-c1ccccc1-2` [Compound 47]: greater than 7.00; `CCOC(=O)c1ncn2c1Cc1c(CN3CCCC3)nnn1-c1cc(OC)ccc1-2` [Compound 48]: greater than 7.00. The same measure, in the same setting: next, `CCOC(=O)c1ncn2c1Cc1c(CN3CCOCC3)nnn1-c1cc(OC)ccc1-2` [Compound 49]: greater than 7.00. Still for that read-out and setting: under `CCOC(=O)c1ncn2c1Cc1c(CN(CC)CC)nnn1-c1cc(OC)ccc1-2` [Compound 50] stands 6.00 to 7.00. For the molecule `CCOC(=O)c1ncn2c1Cc1c(CN(C)Cc3ccccc3)nnn1-c1cc(OC)ccc1-2` [Compound 51], the negative-log Ki (pKi) was greater than 7.00. On to `CCOC(=O)c1ncn2c1Cc1c(Cc3cccc(Cl)c3)nnn1-c1cc(OC)ccc1-2` [Compound 52], for which the negative-log Ki (pKi) is greater than 7.00.

The molecule `CCOC(=O)c1ncn2c1Cc1c(Cc3cccc(C#N)c3)nnn1-c1cc(OC)ccc1-2` [Compound 53] had a pKi greater than 7.00. In the case of `CCOC(=O)c1ncn2c1Cn1c(COc3ccccc3)nnc1-c1cc(OC)ccc1-2` [Compound 55], the pKi was greater than 7.00. The same measure, in the same setting: next, `CCOC(=O)c1ncn2c1Cn1c(COc3ccc(F)cc3)nnc1-c1cc(OC)ccc1-2` [Compound 56]: greater than 7.00; `CCOC(=O)c1ncn2c1Cc1c(Cc3ccccc3)nnn1-c1cc(C)ccc1-2` [Compound 101]: greater than 7.00; `CCOC(=O)c1ncn2c1Cc1c(C)nnn1-c1cc(C)ccc1-2` [Compound 102]: greater than 7.00. `CCOC(=O)c1ncn2c1Cn1c(COC)nnc1-c1cc(OC)ccc1-2` [Compound 103] had a pKi greater than 7.00. On the same count and under the same terms, next, `CCOC(=O)c1ncn2c1Cn1c(Oc3ccccc3)nnc1-c1cc(OC)ccc1-2` [Compound 104]: greater than 7.00; `CCOC(=O)c1ncn2c1Cn1c(Oc3cccc(OC)c3)nnc1-c1cc(OC)ccc1-2` [Compound 105]: greater than 7.00. `CCOC(=O)c1ncn2c1Cn1c(Br)nnc1-c1cc(OC)ccc1-2` [Compound 106] gave a negative logarithm of the Ki (pKi) greater than 7.00. Same read-out and setting: under `CCOC(=O)c1ncn2c1Cc1c(COc3ccccc3)nnn1-c1cc(F)ccc1-2` [Compound 107] stands greater than 7.00. On the same count and under the same terms, under `CCOC(=O)c1ncn2c1Cc1c(Cc3ccccc3Cl)nnn1-c1cc(OC)ccc1-2` [Compound 108] stands greater than 7.00; under `Cc1noc(-c2ncn3c2Cc2c(Cc4ccccc4)nnn2-c2cc(F)ccc2-3)n1` [Compound 109], greater than 7.00; under `Cc1noc(-c2ncn3c2Cc2c(C)nnn2-c2cc(F)ccc2-3)n1` [Compound 110], 6.00 to 7.00. For the molecule `Cc1nnn2c1Cc1c(C(=O)OC(C)C)ncn1-c1ccc(F)cc1-2` [Compound 112], the pKi is greater than 7.00.

The molecule `Cc1nnn2c1Cc1c(C(=O)OCC(C)(C)C)ncn1-c1ccc(F)cc1-2` [Compound 113] showed a pKi of 6.00 to 7.00.

Molecule `Cc1nnn2c1Cc1c(C(=O)OCC(F)(F)F)ncn1-c1ccc(F)cc1-2` [Compound 114] gave a pKi greater than 7.00. With `Cc1nnn2c1Cc1c(C#N)ncn1-c1ccccc1-2` [Compound 115], the negative-log Ki (pKi) is 6.00 to 7.00. The molecule `Cc1nnn2c1Cc1c(C#N)ncn1-c1ccc(F)cc1-2` [Compound 116] gave a pKi of less than 6.00.

Molecule `Cc1nnn2c1Cc1c(C(N)=O)ncn1-c1ccccc1-2` [Compound 117] gave a pKi of less than 6.00. Same read-out and setting: under `COc1ccc2c(c1)-c1nnc(COc3ccccc3)n1Cc1c(-c3nc(C)no3)ncn1-2` [Compound 118] stands greater than 7.00; under `COc1ccc2c(c1)-c1nnc(COc3ccccc3)n1Cc1c(C(=O)OCC(C)(C)C)ncn1-2` [Compound 119], 6.00 to 7.00; under `COc1ccc2c(c1)-c1nnc(COc3ccccc3)n1Cc1c(C(=O)OC(C)C)ncn1-2` [Compound 120], greater than 7.00. Regarding `Cc1ncn2c1Cc1c(C)nnn1-c1ccccc1-2` [Compound 121], the negative logarithm of the Ki (pKi) is less than 6.00. Still for that read-out and setting: next, `COc1ccc2c(c1)-c1nnc(COc3ccccc3)n1Cc1c(C#N)ncn1-2` [Compound 122]: greater than 7.00. With `COc1ccc2c(c1)-c1nnc(COc3ccccc3)n1Cc1c(C(F)F)ncn1-2` [Compound 124], the negative logarithm of the Ki (pKi) is 6.00 to 7.00. Same read-out and setting: next, `CCC(=O)c1ncn2c1Cc1c(C)nnn1-c1ccccc1-2` [Compound 125]: 6.00 to 7.00.

Molecule `Cc1noc(-c2ncn3c2Cc2c(C)nnn2-c2ccccc2-3)n1` [Compound 126] gave a negative-log Ki (pKi) greater than 7.00. Consider `Cc1nc(-c2ncn3c2Cc2c(C)nnn2-c2ccccc2-3)no1` [Compound 127], for which the pKi is greater than 7.00. Still for that read-out and setting: next, `COCc1nnc2n1Cc1c(-c3nc(C)no3)ncn1-c1ccc(OC)cc1-2` [Compound 128]: greater than 7.00. For the molecule `COCc1nnc2n1Cc1c(Br)ncn1-c1ccc(OC)cc1-2` [Compound 129], the pKi is greater than 7.00. `COCc1nnc2n1Cc1c(-c3nc(C(C)C)no3)ncn1-c1ccc(OC)cc1-2` [Compound 130] had a pKi greater than 7.00. Still for that read-out and setting: under `Cc1nnn2c1Cc1c(-c3nc(C(C)C)no3)ncn1-c1ccccc1-2` [Compound 132] stands greater than 7.00; under `Cc1nnn2c1Cc1c(-c3noc(C(C)C)n3)ncn1-c1ccccc1-2` [Compound 133], greater than 7.00; under `CCOCc1ncn2c1Cc1c(COCC)nnn1-c1ccccc1-2` [Compound 134], 6.00 to 7.00. The same measure, in the same setting: under `Cc1ncn2c1Cc1c(C)nnn1-c1cc(F)ccc1-2` [Compound 135] stands less than 6.00; under `Cc1nnn2c1Cc1c(Br)ncn1-c1ccc(F)cc1-2` [Compound 136], 6.00 to 7.00. The same measure, in the same setting: under `CCOC(=O)c1ncn2c1Cn1c(COc3ccccc3)nnc1-c1cc(F)ccc1-2` [Compound 137] stands greater than 7.00. `Cc1noc(-c2ncn3c2Cn2c(COc4ccccc4)nnc2-c2cc(F)ccc2-3)n1` [Compound 138]: the negative-log Ki (pKi) was 6.00 to 7.00.

In turn, `Cc1nnn2c1Cc1c(-c3ccccc3)ncn1-c1ccc(F)cc1-2` [Compound 139] had a pKi of 6.00 to 7.00. The same measure, in the same setting: next, `Cc1nnn2c1Cc1c(-c3cccnc3)ncn1-c1ccc(F)cc1-2` [Compound 140]: less than 6.00; `CC(C)c1noc(-c2ncn3c2Cn2c(COc4ccccc4)nnc2-c2cc(F)ccc2-3)n1` [Compound 141]: 6.00 to 7.00; `Cc1ccc(S(=O)(=O)c2ncn3c2Cc2c(C)nnn2-c2cc(F)ccc2-3)cc1` [Compound 143]: 6.00 to 7.00.
